Measured values taken from patent publication US20220257595A1, “MACITENTAN FOR USE IN TREATING PORTOPULMONARY HYPERTENSION” (ACTELION PHARMACEUTICALS LTD, priority 2019, published 2022).

Experiments:
[1] = system: patients with PoPH; test: PORTICO: 6-minute walk test (6MWD); assay type: in vivo, human
Protocol: (iv) 6-minute walk test, including Borg dyspnea index: The 6MWT was performed at Screening, Baseline (Visit 2/Randomization), and then every Visit until EOT-DB or EOT-OL, whichever came last. It is a non-encouraged test that measures the distance walked by the patient in six minutes. It is important that for each individual patient the 6MWT was conducted under the same conditions throughout the study (e.g., same location, same tester, same time of day, with or without nasal oxygen therapy and where applicable with same flow rate as Baseline). The Borg dyspnea index was evaluated after each 6MWT. It rates dyspnea on a scale from 0 to 10.
Handling of missing data: For change from baseline to Weeks 4, 8 and 12 in 6MWD and WHO FC, the last available value (including baseline) was carried forward unless the patient died before, or on Day 42, 70, 98 (the upper limit treatment days of Weeks 4, 8 and 12 windows, respectively), in which case the following rules considering worst case were used to replace all the missing values from the week after death up to Week 12: • For 6MWD, worst fixed value was set to 0, • For WHO FC, worst fixed value was set to class IV, • For change from baseline to Week 12 in NT-proBNP, the same imputation rule as for PVR was applied as described herein.
(§1) Statistical analysis: The change from baseline to Week 12 in mRAP, mPAP, cardiac index, TPR and SVO2 were analyzed on the FAS (with imputation) using an ANCOVA with factors for treatment group, background PAH-specific therapy at baseline (Yes/No as per IXRS, randomization stratification factor), region (Europe/North America/Latin America as per IXRS, randomization stratification factor) and a covariate for baseline corresponding variable. Other RHC variables are listed only. WHO FC is summarized on the FAS (with imputation) by time point and treatment group using frequency tables. Changes from baseline in WHO FC were dichotomized as worsening (i.e., change >0) versus no change or improvement (i.e., change ≤0). Worsening was analyzed using a logistic regression model (exact) with covariates for treatment group, background PAH-specific therapy at baseline (Yes/No as per IXRS, randomization stratification factor) and region (Europe/North America/Latin America as per IXRS, randomization stratification factor). 6MWD is summarized on the FAS (with imputation) by time point and treatment group using descriptive statistics. Change from baseline to each time point is summarized similarly. Change from baseline in 6MWD (up to Week 12) was analyzed using a mixed-effect model repeated measure (MMRM) with factors for treatment group, time point, treatment by time interaction, background PAH-specific therapy at baseline (Yes/No as per IXRS, randomization stratification factor) and region (Europe/North America/Latin America as per IXRS, randomization stratification factor), and covariates for baseline 6MWD and WHO FC. An unstructured covariance matrix was used to account for the correlation between repeated measurements from the same patient. NT-proBNP is summarized on the FAS (with imputation) by time point and treatment group using descriptive statistics as well as geometric means and CVs. The ratio of Week 12 to baseline NT-proBNP is summarized similarly. The ratio versus baseline in NT-proBNP was log-transformed and analyzed using an ANCOVA with covariates for treatment group, background PAH-specific therapy at baseline (Yes/No as per IXRS, randomization stratification factor), region (Europe/North America/Latin America as per IXRS, randomization stratification factor) and baseline log NT-proBNP.
Supportive/sensitivity analyses: The main MMRM model analysis for 6MWD was also performed without stratification factors. […]

[2] = system: patients with PoPH; test: PORTICO: serum NT-proBNP (incl. post-hoc 300 ng/L threshold shift); assay type: in vivo, human
Protocol: (v) Serum NT-proBNP: A blood sample was drawn at Baseline (Visit 2/Randomization), EOT-DB, and/or EOT-OL (whichever came last) for the analysis of serum NT-proBNP. Serum NT-proBNP samples were shipped to the central laboratory on dry ice as soon as possible after the blood sample had been drawn or stored frozen at −20° C. (−4° F.)±2° C. (±3.6° F.) until the shipment.
as §1, with “Changes from baseline in WHO FC were dichotomized as worsening (i.e., change >0) versus no change or improvement (i.e., change ≤0).” left out, “6MWD is summarized on the FAS (with imputation) by time point and treatment group using descriptive statistics. Change from baseline to each time point is summarized similarly.” left out, “An unstructured covariance matrix was used to account for the correlation between repeated measurements from the same patient. NT-proBNP is summarized on the FAS (with imputation) by time point and treatment group using descriptive statistics as well as geometric means and CVs. The ratio of Week 12 to baseline NT-proBNP is summarized similarly.” left out, “NT-proBNP. […]” for “NT-proBNP.”

[3] = 10 mg o.d., FAS with imputation, N=43
[4] = MTS without imputation, macitentan in both DB and OL periods
[5] = MTS without imputation, macitentan only in OL period (DB placebo patients)

CCCNS(=O)(=O)Nc1ncnc(OCCOc2ncc(Br)cn2)c1-c1ccc(Br)cc1 [macitentan, N-[5-(4-Bromophenyl)-6-[2-[(5-bromo-2-pyrimidinyl)oxy]ethoxy]-4-pyrimidinyl]-N′-propylsulfamide]
6MWD at Week 4, mean ± SD [1, 3]: 392.5 ± 93.74 m | 6MWD at Week 8, mean ± SD [1, 3]: 390.3 ± 99.35 m | 6MWD at Week 12, mean ± SD [1, 3]: 392.2 ± 98.46 m | Change from baseline to Week 4 in 6MWD, mean ± SD [1, 3]: 6.7 ± 44.55 m | Change from baseline to Week 8 in 6MWD, mean ± SD [1, 3]: 4.5 ± 67.40 m | Change from baseline to Week 12 in 6MWD, mean ± SD [1, 3]: 6.4 ± 65.74 m | LS mean difference (macitentan-placebo), change in 6MWD to Week 12, ANCOVA sensitivity analysis ([1]; FAS): 10.05 m | Difference in LS means macitentan-placebo, change in 6MWD at Week 4 ([1]; MMRM, FAS): 23.02 m | Difference in LS means macitentan-placebo, change in 6MWD at Week 8 ([1]; MMRM, FAS): 14.47 m | Difference in LS means macitentan-placebo, change in 6MWD at Week 12 ([1]; MMRM, FAS): 9.73 m | Difference in LS means macitentan-placebo, change in 6MWD, overall ([1]; MMRM, FAS, Weeks 4-12 overall): Overall: 15.74 m | Mean (±SD) change from baseline in 6MWD at Week 4 [1, 4]: 7.0±45.62 m | Mean (±SD) change from baseline in 6MWD at Week 24 [1, 4]: 22.0±42.55 m | Mean (±SD) change from macitentan baseline in 6MWD at Week 4 [1, 5]: 11.5±31.67 m | Mean (±SD) change from macitentan baseline in 6MWD at Week 12 [1, 5]: 13.9±39.27 m | Mean (±SD) observed difference at Week 12 (macitentan-placebo) in 6MWD ([1]; no imputation): 18.4 m | Increase in walk distance from baseline to Week 24 ([1]; patients originally randomised to macitentan, followed into open-label period): 20 m | Patients with NT-proBNP above 300 ng/L at baseline decreasing to below threshold after 12 weeks ([2]; 6 of 16 macitentan patients, FAS no imputation, post-hoc): 37.5% | Geometric mean ratio of Week 12 to baseline NT-proBNP ([2]; FAS with imputation, macitentan group): 0.86 | NT pro-BNP shift: Week 12 Category 2 ([2]; Total, Full analysis set, 10 mg, N = 43): 9 n (%)
